{"source": "patent US6617321B2", "about": "“2-methyl-thieno-benzodiazepine formulation” (Eli Lilly and Company, priority 1997, dated 2003)", "assay": "Solubility of olanzapine pamoate salts as a function of pH", "type": "physicochemical", "conditions": "particularly in the range of pH 4 to 8"}
{"molecule": "Cc1cc2c(s1)Nc1ccccc1N=C2N1CCN(C)CC1.O=C(O)c1cc2ccccc2c(Cc2c(O)c(C(=O)O)cc3ccccc23)c1O", "note": "[olanzapine pamoate, 2-methyl-4-(4-methyl-1-piperazinyl)-10H-thieno[2,3-b][1,5]benzodiazepine pamoate]", "values": [{"measurement": "solubility, dependence on pH", "value": "somewhat independent of pH"}]}
